Experimental findings from patent US20120165319A1, “INHIBITORS OF INTERLEUKIN-1 BETA CONVERTING ENZYME” (VERTEX PHARMACEUTICALS INCORPORATED, priority 1995, published 2012) are described below.

The first test concerns the target T1, ICE (Homo sapiens, UniProt P29466).
T1 sequence (P29466 120-297 limits assumed): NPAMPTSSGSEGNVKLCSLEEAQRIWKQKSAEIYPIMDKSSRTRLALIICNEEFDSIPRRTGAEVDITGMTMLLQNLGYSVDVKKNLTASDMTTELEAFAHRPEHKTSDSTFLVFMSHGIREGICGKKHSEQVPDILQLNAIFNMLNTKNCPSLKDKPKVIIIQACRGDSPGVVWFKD
T1 sequence (P29466 317-404 limits assumed): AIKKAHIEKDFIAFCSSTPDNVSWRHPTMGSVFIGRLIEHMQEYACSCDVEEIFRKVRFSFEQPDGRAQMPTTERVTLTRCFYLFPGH
Kind of test: Enzyme assay with UV-visible substrate (visible ICE assay, Succinyl-Tyr-Val-Ala-Asp-pNitroanilide). The format is biochemical. As to conditions: Table 5. The protocol:
1. Enzyme Assay with Uv-Visible Substrate
This assay is run using an Succinyl-Tyr-Val-Ala-Asp-pNitroanilide substrate. Synthesis of analogous substrates is described by L. A. Reiter (Int. J. Peptide Protein Res. 12, 87-96 (1994)). The assay mixture contains:
The visible ICE assay is run in a 96-well microtiter plate. Buffer, ICE and DMSO (if inhibitor is present) are added to the wells in the order listed. The components are left to incubate at room temperature for 15 minutes starting at the time that all components are present in all wells. The microtiter plate reader is set to incubate at 37° C. After the 15 minute incubation, substrate is added directly to the wells and the reaction is monitored by following the release of the chromophore (pNA) at 405-603 nm at 37° C. for 20 minutes. A linear fit of the data is performed and the rate is calculated in mOD/min. DMSO is only present during experiments involving inhibitors, buffer is used to make up the volume to 100 μl in the other experiments.
For determination of enzyme inhibition constants (Ki) or the mode of inhibition (competitive, uncompetitive or noncompetitive), the rate data determined in the enzyme assays at varying inhibitor concentrations are computer-fit to standard enzyme kinetic equations (see I. H. Segel, Enzyme Kinetics, Wiley-Interscience, 1975).
Regarding `CC(=O)c1ccc(C(=O)N[C@H]2CCC(=O)N3CCC[C@@H](C(=O)N[C@H](C=O)CC(=O)O)N3C2=O)cc1` [Compound 474], the inhibition constant (Ki) (commonly a measure of affinity in units of concentration, obtained from inhibition or displacement) was found to be 85 nM. On the same count and under the same terms, the value for `CC(=O)N1C[C@H](NC(=O)c2ccc3cc(OC(=O)c4ccc5cc(O)ccc5c4)ccc3c2)C(=O)N(CC(=O)N[C@H](C=O)CC(=O)O)c2ccccc21` [Compound 623] was 9 nM; that for `O=C[C@H](CC(=O)O)NC(=O)[C@@H]1CCCN2C(=O)CC[C@H](NC(=O)c3cccc(F)c3)C(=O)N12` [Compound 462] was 40 nM. As to `CN(C)S(=O)(=O)N[C@H]1CCC(=O)N2CCC[C@@H](C(=O)N[C@H](C=O)CC(=O)O)N2C1=O` [Compound 428], the Ki was determined as 280 nM. `CC(=O)N1C[C@H](NS(=O)(=O)Cc2ccccc2)C(=O)N(CC(=O)N[C@H](C=O)CC(=O)O)c2ccccc21` [Compound 631] displayed an inhibition constant Ki of 805 nM. `NS(=O)(=O)c1ccc(C(=O)N[C@H]2CCC(=O)N3CCC[C@@H](C(=O)N[C@H](C=O)CC(=O)O)N3C2=O)cc1` [Compound 478]: the inhibition constant (Ki) is 380 nM. This Ki lies about 2.1-fold lower than the previous one. Still for that read-out and setting: the value for `O=C[C@H](CC(=O)O)NC(=O)[C@@H]1CCCN2C(=O)CC[C@H](NC(=O)Cc3ccccc3)C(=O)N12` [Compound 495] was 43 nM. The compound `O=C[C@H](CC(=O)O)NC(=O)CN1C(=O)[C@@H](NC(=O)c2ccccc2)CN(C(=O)OC2CCOC2)c2ccccc21` (stereo partly shown) [Compound 605q] had an inhibition constant (Ki) of 1000 nM. Against the preceding compound, the Ki is about 23-fold higher. Still for that read-out and setting: the value for `CC(=O)N1C[C@H](NC(=O)c2ccc3ccccc3n2)C(=O)N(CC(=O)N[C@H](C=O)CC(=O)O)c2ccccc21` [Compound 619] was 300 nM.

The same test, now with this note: Table 17.
The compound `O=C[C@H](CC(=O)O)NC(=O)[C@@H]1CCCN2C(=O)CCN(NC(=O)/C=C/c3ccc4c(c3)OCO4)C(=O)N12` [Compound 1116] yielded an inhibitory constant (Ki) of 215 nM. Still for that read-out and setting: the value for `CC(=O)N1C[C@H](NC(=O)C(=O)c2cccs2)C(=O)N(CC(=O)N[C@H](C=O)CC(=O)O)c2ccccc21` [Compound 701] was 90 nM; that for `O=C[C@H](CC(=O)O)NC(=O)[C@@H]1CCCN2C(=O)CCN(NC(=O)CCc3ccc4c(c3)OCO4)C(=O)N12` [Compound 1114] was 125 nM; that for `CC(=O)N1C[C@H](NC(=O)/C=C/c2ccc(Cl)c(Cl)c2)C(=O)N(CC(=O)N[C@H](C=O)CC(=O)O)c2ccccc21` [Compound 700] was 275 nM.

The compound `O=C[C@H](CC(=O)O)NC(=O)[C@@H]1CCCN2C(=O)CCN(NC(=O)C(=O)c3cccs3)C(=O)N12` [Compound 1107] returned a Ki of 65 nM. This Ki is about 4.2-fold lower than that of the compound before. `CC(=O)N1C[C@H](NC(=O)C(=O)Nc2ccc(Cl)cc2)C(=O)N(CC(=O)N[C@H](C=O)CC(=O)O)c2ccccc21` [Compound 710] returned an inhibition constant (Ki) of 110 nM. This Ki lies about 1.7-fold higher than the previous one. The same measure, in the same setting: the value for `COc1cc(C(=O)C(=O)NN2CCC(=O)N3CCC[C@@H](C(=O)N[C@H](C=O)CC(=O)O)N3C2=O)cc(OC)c1OC` [Compound 1124] was 270 nM.

The test is the same for the next values; noted with them: Table 27.
`CC(=O)OC(C)(C)C(=O)N1C[C@H](NC(=O)c2cc(C)c(O)c(C)c2)C(=O)N(CC(=O)N[C@H](C=O)CC(=O)O)c2ccccc21` [Compound 728]: the inhibition constant Ki came to 300 nM. That is a sub-micromolar value.

Compound `COCC(=O)N1C[C@H](NC(=O)c2nccc3ccccc23)C(=O)N(CC(=O)N[C@H](C=O)CC(=O)O)c2ccccc21` [Compound 699, (3S)-3-[(3S)-2-Oxo-3-isoquinolin-1-oylamino-5-methoxyacetyl-2,3,4,5-tetrahydro-1H-1,5-benzodiazepine-1-acetylamino]-4-oxobutyric acid] came in with an inhibitory constant (Ki) of 1.1 nM. Still for that read-out and setting: the result for `COCC(=O)N1C[C@H](NC(=O)c2cc(C)c(O)c(C)c2)C(=O)N(CC(=O)N[C@H](/C=N/OCc2c(Cl)cccc2Cl)CC(=O)O)c2ccccc21` [Compound 688c, (3S)-3-[(3S)-2-Oxo-3-(3,5-dimethyl-4-hydroxybenzoyl)amino-5-methoxyacetyl-2,3,4,5-tetrahydro-1H-1,5-benzodiazepine-1-acetylamino]-4-oxobutyric acid, O-2,6-dichlorobenzyl oxime] reads 200 nM.
